Calls of active or inactive are those of the source. No cut-off for these calls is given here.

Assay [1] has as its system Micrococcus luteus. The assay is described as follows: Antibacterial activity against Micrococcus luteus at 0.005 to 1 mg/ml by agar diffusion assay. The conditions noted are these: dose 0.005-1 mg/ml. The format is functional, organism-based. (Agar diffusion results depend on both activity and mobility in agar.)
For assay [2], the system named is Staphylococcus aureus. The assay is described as follows: Antibacterial activity against Staphylococcus aureus Sau 16339 at 0.005 to 1 mg/ml by agar diffusion assay. The format is functional, organism-based. The conditions noted are these: dose 0.005-1 mg/ml.
Assay [3] deals with Staphylococcus aureus. The assay is described as follows: Antibacterial activity against Staphylococcus aureus Sau 16339 assessed as inhibition zone at 0.5 mg/ml by agar diffusion assay. As to conditions: read-out: IZ. The format is functional.
Assay [4] relates to Micrococcus luteus. Nature of the assay: Antibacterial activity against Micrococcus luteus assessed as inhibition zone at 0.5 mg/ml by agar diffusion assay. The format is functional. As to conditions: read-out: IZ.

Consider `COC(=O)/C=C/C(C)=C/C=C/C(C)=C/C=C/c1ccccc1`, for which the outcome in the assay on Micrococcus luteus [1] and in the assay on Staphylococcus aureus [2] was inactive.
`CC(/C=C/C=C(C)/C=C/C(=O)N[C@@H]1O[C@H](CO)[C@@H](O)[C@H](O[C@@H]2O[C@H](CO)[C@@H](O)[C@H](O[C@@H]3O[C@H](CO[C@@H]4O[C@H](CO)[C@@H](O)[C@H](O)[C@H]4O)[C@@H](O)[C@H](O)[C@H]3O)[C@H]2O)[C@H]1O)=C\C=C\c1ccccc1`: the zone of inhibition at 500 µg/mL in the assay with Staphylococcus aureus [3] was found to be 4 mm. Besides, the outcome in the assay with Micrococcus luteus [1] was inactive.
For the compound `CC(/C=C/C=C/C=C/C(=O)N[C@@H]1O[C@H](CO)[C@@H](O)[C@H](O[C@@H]2O[C@H](CO)[C@@H](O)[C@H](O[C@@H]3O[C@H](CO[C@@H]4O[C@H](CO)[C@@H](O)[C@H](O)[C@H]4O)[C@@H](O)[C@H](O)[C@H]3O)[C@H]2O)[C@H]1O)=C\C=C\c1ccccc1`, the result in the assay on Staphylococcus aureus [2] was inactive. The zone of inhibition at 500 µg/mL in the assay with Micrococcus luteus [4] turned out to be 3 mm.
With `CN(C)[C@@H]1C(O)=C(C(N)=O)C(=O)[C@@]2(O)C(O)=C3C(=O)c4c(O)cccc4[C@@](C)(O)[C@H]3C[C@@H]12` [TETRACYCLINE], the zone of inhibition at 500 µg/mL with Staphylococcus aureus [3] came to 12 mm; with Micrococcus luteus [4], 15 mm.
Consider `CC(/C=C/C(=O)N[C@@H]1O[C@H](CO)[C@@H](O)[C@H](O[C@@H]2O[C@H](CO)[C@@H](O)[C@H](O[C@@H]3O[C@H](CO[C@@H]4O[C@H](CO)[C@@H](O)[C@H](O)[C@H]4O)[C@@H](O)[C@H](O)[C@H]3O)[C@H]2O)[C@H]1O)=C\C=C\c1ccccc1`, for which the result in the assay on Micrococcus luteus [1] and in the assay on Staphylococcus aureus [2] was inactive.
In the case of `COC(=O)/C=C/C=C/C=C/C(C)=C/C=C/c1ccccc1`, the result in the assay with Micrococcus luteus [1] and with Staphylococcus aureus [2] was inactive.

(Values after ChEMBL document CHEMBL6071166, “Maduraflavacins A-E, Unusual Phenyl Polyene Metabolites Produced by a Rare Marine-Derived Actinomadura sp” (2024).)
